Assay results as given in patent US20050136445A1, “Recombinant DNA vector, recombinant bio-luminescent bacterium and method for detecting bio-inhibitory substances using same” (Industrial Technology Research Institute, priority 2003, published 2005).

The compounds below were run on recombinant luminescent bacteria, pLWY-fabG (in Serratia marcescens) and pLWY-sh1A (in Serratia marcescens) (assay: Luminosity (RLU) of recombinant bio-luminescent bacteria after mixing with test sample). Conditions: 200 μl bacterial liquid + 20 μl test sample, react for 15 minutes, luminosity detected for 20 sec; expressed as percentage of purified water control (100%).
Format: cell-based
Text: The technique developed in this invention that allows speedy detection of bio-inhibitory substances in wastewater is based on the principle that such substance poses a negative effect on the luminescent ability of recombinant luminescent bacteria, pLWY-fabG (in Serratia marcescens) and pLWY-sh1A (in Serratia marcescens) as provided herein. The detailed process for detecting bio-inhibitory substances in wastewater using the foregoing recombinant bio-luminescent bacteria are described below: 1. Culture the constructed foregoing recombinant bio-luminescent bacteria for 18-24 hours (O.D. >2); 2. Dilute the bacterial liquid at 1:100 with fresh LB broth the next day; 3. Shake culture at 225 rpm under 30° C. for one hour; 4. Mix 200 μl of bacterial liquid with 20 μl of test sample; mix well and let them react for 15 minutes; and 5. Use luminometer Berthold Lumat LB9507 to detect luminosity for 20 sec and the results are shown in relative light unit (RLU).
To preclude environmental error, each batch of test samples must include purified water to be treated as a positive control with RLU set as 100% for a standard reference. Given that the RLU of negative control (LB broth) is 0, it was not measured. The test results of samples are expressed as a percentage of the positive control. In this test, the amount of bacterial liquid used was 200 μl and that of test sample was 20 μl. Therefore the concentration of test sample was diluted to 1/11 of the original liquid at the time of testing. The concentrations of samples shown in the table are the detected concentration.

| SMILES | luminosity (RLU value) of the recombinant bio-luminescent bacterium versus concentration of the bio-inhibitory substance |
| --- | --- |
| CC#N [acetonitrile] | the higher is the acetonitrile concentration, the lower is the RLU value |
| Oc1ccccc1 [phenol] | the higher is the phenol concentration, the lower is the RLU value |
| [Zn+2] [zinc ion] | the higher is the zinc ion concentration, the lower is the RLU value |
